Structures are written as SMILES.

The series in a line: gradient 5% acetonitrile 3 min, to 50% in 2 min, to 85% in 15 min, held 3 min, 100 µL/min. The conditions noted are these: column: Zorbax Extend-C18 2.1 x 50 mm; eluents: water / acetonitrile, 0.1% formic acid. In outline:
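The system's dead and dwell volumes were 40 μL and 900 μL, with a Zorbax Extend-C18 column (2.1 × 50 mm, 1.8 μm) run at 100 μL/min in water and acetonitrile containing 0.1% formic acid each. Pure standards were analyzed in mixtures of ~100 molecules by HPLC–quadrupole time-of-flight mass spectrometry in positive and negative ionization mode. Retention time was assigned from computationally picked, manually inspected adduct peaks.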
Compound `Cc1ccc2nc(-c3c(F)cccc3Cl)c(Nc3ccc4c(c3)OCO4)n2c1` displayed an RP-LC retention time of 700 s.

The compound `CC(NC(=O)C1CCCN(c2nccnc2Oc2ccccc2)C1)c1ccccc1` (centres undefined) had an RP-LC retention time of 986 s.

`CCc1cccc(NC(=O)Cn2cc(C(=O)N3CCCC3)c(=O)c3ccc(C)nc32)c1` had an RP-LC retention time of 753 s.

On to `O=C(C1=Cc2ccccc2OC=C1)N1CCc2ccccc2C1`, for which the RP-LC retention time came to 1090 s. Consider `CCOC(=O)c1nc(N2CCN(c3cc(C)ccc3C)CC2)c2ccccc2n1`, for which the RP-LC retention time worked out at 1120 s. As to `CCc1ccccc1NC(=O)CN1C(=O)CCCc2cc(S(=O)(=O)N3CCCC3)ccc21`, the RP-LC retention time came to 845 s. For the compound `O=C(CSc1nnc2c3sc(N4CCCC4)nc3ncn12)Nc1ccc(F)cc1`, the RP-LC retention time was determined as 794 s. In the case of `O=C1NC2(CCN(C(=O)c3ccccc3)CC2)N=C1c1ccc(Br)cc1`, the RP-LC retention time is 861 s. Turning to `CCOC(=O)c1cccc(NC(=O)Cn2ccc3ccc(-c4nnc(C)o4)cc32)c1`, the RP-LC retention time came out at 829 s. Take `CCOc1ccc(-c2cn3ccn(-c4cc(C)cc(C)c4)c(=O)c3n2)cc1`: the RP-LC retention time worked out at 965 s. `CCN(Cc1ccccc1)S(=O)(=O)c1cc(-c2nnc(C3CCC3)o2)co1` yielded an RP-LC retention time of 913 s. `Cc1ccc2c(c1)N(S(C)(=O)=O)CCC(C(=O)Nc1cccc(OC(C)C)c1)O2` (centres undefined) yielded an RP-LC retention time of 893 s. The compound `COC(=O)C1=CN(c2cc(Cl)ccc2OC)c2cc(F)ccc2S1(=O)=O` returned an RP-LC retention time of 909 s. Turning to `CCOc1ccc(NC(=O)c2cnc3c(c2)c(=O)n(C)c(=O)n3C)cc1`, the RP-LC retention time came to 704 s. For `CN(C)S(=O)(=O)c1ccc(-c2nnc(C(=O)NCc3ccc(Cl)cc3)o2)cc1`, the RP-LC retention time worked out at 909 s. In turn, `CCc1ccc(NC(=O)Cn2nc3cc(-c4ccccc4)nc(C)n3c2=O)cc1` had an RP-LC retention time of 899 s. As to `O=C(NC1CCCC1)c1nc(-c2ccnc(N3CCCCC3)c2)no1`, the RP-LC retention time was 763 s. The same measure for `COC(=O)c1ncn2c1C(=O)N(c1ccc(F)cc1)C(C)(C(=O)NCc1ccc(C)cc1)C2` (centres undefined): 732 s; for `CCc1c(C(=O)OC)ncc2[nH]c3cc(OC)c(OC)cc3c12`: 702 s; for `CCN1CCN(C(=O)Nc2ccc(Br)cc2)c2cccnc21`: 666 s.

In turn, `N#Cc1cccc(C(=O)Nc2cnn(-c3ncc(N4CCCC4)cn3)c2)c1` returned an RP-LC retention time of 777 s. `Cc1cccc(OCc2nc(C)c(C(=O)Nc3nc(-c4ccc(C)c(C)c4)cs3)s2)c1` returned an RP-LC retention time of 1410 s. For the compound `CC1(C)CC(=O)C2=C(C1)Nc1ccccc1N(CC(=O)N1CCOCC1)C2c1cccs1` (centres undefined), the RP-LC retention time came to 721 s. `COc1ccccc1N1CCN(C(=O)C2CCN(S(=O)(=O)c3cn(C(C)C)cn3)CC2)CC1` showed an RP-LC retention time of 716 s.

In turn, `CCCn1cc(C(=O)NCc2ccc(C)cc2)c(S(=O)(=O)N2CCC(C)CC2)n1` had an RP-LC retention time of 1140 s. `CCCN1C(=O)COc2ccc(-c3noc(-c4n[nH]c5c4CCCC5)n3)cc21` registered an RP-LC retention time of 1000 s. `CC(C)Cn1c(=O)c(N2CCN(C(=O)c3ccccc3Cl)CC2)nc2ccncc21`: the RP-LC retention time came out at 682 s. With `COc1ccc(N2CCN(c3cc(SCC(=O)NCCCc4ccccc4)ncn3)CC2)cc1` the figure was 1110 s. `CCN1CCN(C(=O)C2CCN(c3nc4ccc(-c5cccs5)nc4s3)CC2)CC1` displayed an RP-LC retention time of 586 s. `CCN(c1ccccc1C)S(=O)(=O)c1cc(-c2[nH]ncc2C(=O)N(C)C)oc1C` showed an RP-LC retention time of 782 s. Regarding `CCC(=O)N1CCc2cc(CNS(=O)(=O)c3ccc(OC)cc3)ccc21`, the RP-LC retention time was determined as 812 s. Compound `O=C(Nc1ccc(-n2cnnn2)cc1)C1CN(c2nc3ccccc3s2)C1` registered an RP-LC retention time of 659 s. The compound `O=C(NCC1CCCO1)C1CCN(S(=O)(=O)c2cc(-c3noc(C4CCC4)n3)cs2)CC1` (centres undefined) came in with an RP-LC retention time of 858 s. The compound `CC(C)(C)c1csc(-c2csc(S(=O)(=O)Nc3ccc(Cl)cc3)c2)n1` showed an RP-LC retention time of 1300 s.

Compound `N#CCCN1CCN(c2ccc(NC(=O)C3CC3)c(C(=O)O)c2)CC1` returned an RP-LC retention time of 579 s.

`O=C(NCCc1c[nH]c2ccc(Cl)cc12)c1ccc(-n2nnc3cccnc32)cc1` displayed an RP-LC retention time of 922 s. The compound `CC1(C)CC(=O)c2cn(-c3ccc(Cl)cc3)c(=O)c(C(=O)Nc3cccnc3)c2C1` gave an RP-LC retention time of 763 s. `CN(CCc1noc(C2CN(Cc3cccc(C(F)(F)F)c3)C2)n1)S(C)(=O)=O`: the RP-LC retention time is 643 s.

The compound `COc1ccc(CC(=O)NCC2(CO)CC2)cc1OC` showed an RP-LC retention time of 582 s.

The compound `CC(C(=O)NCCc1c[nH]c2ccccc12)n1c2ccccc2c2cnn(C)c(=O)c21` (centres undefined) had an RP-LC retention time of 829 s.

Consider `Cc1cc(C)c2sc(NC(=O)c3ccco3)nc2c1`, for which the RP-LC retention time is 881 s.

In the case of `CC(C)N1CCn2cc(S(=O)(=O)NCc3ccc(F)cc3F)cc2C1=O`, the RP-LC retention time is 763 s.

The compound `Cc1ccc(C)c2sc(N(C)CC(=O)O)nc12` returned an RP-LC retention time of 793 s. The compound `Cc1ccc(NS(=O)(=O)c2cc3c(s2)CCN(C(=O)C2CC2)C3)c(F)c1` yielded an RP-LC retention time of 828 s. In the case of `COc1ccc(-n2nc3c(c2N)CSC3)cc1`, the RP-LC retention time stood at 629 s. With `CCOC(=O)c1noc2nc(C)nc(NCc3ccc(Cl)cc3)c12`, the RP-LC retention time is 1160 s. Regarding `CCCc1noc(-c2ccnc(-n3cnc(C(=O)N4CCCC(C)C4)c3)c2)n1` (centres undefined), the RP-LC retention time is 944 s. Take `COc1ccc(C)cc1NC(=O)Cn1c(N2CCOCC2)nc(C)cc1=O`: the RP-LC retention time turned out to be 719 s.

In turn, `CC(=O)N1CCCC1c1nc(C2CN(S(=O)(=O)c3cccs3)C2)no1` (centres undefined) yielded an RP-LC retention time of 703 s. For the compound `Cn1nc(-c2nc(C3CC3)no2)c2c1CCN(C(=O)c1cc(F)ccc1Cl)C2`, the RP-LC retention time is 842 s.

The compound `O=C(NC(Cc1ccccc1)C(=O)N1CCN(c2ccccn2)CC1)c1ccc(Cl)cc1` (centres undefined) registered an RP-LC retention time of 692 s. In turn, `c1cncc(-c2n[nH]c(C3CCCCN3)n2)c1` (centres undefined) registered an RP-LC retention time of 555 s. As for `Cc1cc2c(cc1S(=O)(=O)N1CCCC1C(=O)NC1CCCC1)OCC(=O)N2` (centres undefined), the RP-LC retention time is 718 s. With `COc1ccc(CNC(=O)C2CN(S(=O)(=O)C3CC3)CC23CCCCC3)c(OC)c1` (centres undefined) the figure was 815 s.

Compound `Cc1cccc(N2C(=O)CN(CCC(C)C)[C@H]3CS(=O)(=O)C[C@H]32)c1` came in with an RP-LC retention time of 811 s. As to `CN(C)c1ccc(C(CNC(=O)c2ccccc2[N+](=O)[O-])N2CCOCC2)cc1` (centres undefined), the RP-LC retention time was found to be 560 s.

In turn, `CCN1CCN(CCCNC(=O)Cn2c(-c3cccs3)cc3ccccc32)CC1` had an RP-LC retention time of 722 s. Take `O=C(c1noc2ccc(S(=O)(=O)N3CCCc4ccccc43)cc12)N1CCCCC1`: the RP-LC retention time came to 1090 s. Compound `CCN1C(=O)c2cccnc2Sc2cc(NC(=O)c3cc(C)cc(C)c3)ccc21` gave an RP-LC retention time of 918 s. `Cc1ccc(C)c(N2CCN(C(=O)c3c(C)sc4ccn(C)c(=O)c34)CC2)c1` yielded an RP-LC retention time of 946 s. In turn, `CCC(C)C(NC(=O)Cc1ccccc1F)C(=O)Nc1nc2ccccc2[nH]1` (centres undefined) returned an RP-LC retention time of 736 s. With `CCCCC(=O)Nc1ccc(-c2cn3ccc(C)nc3n2)cc1`, the RP-LC retention time turned out to be 612 s. As for `CCn1cc(CCNC(=O)c2sccc2C)c2cccnc21`, the RP-LC retention time turned out to be 705 s. `COc1ccccc1NC(=O)NC1CCN(c2ccc(F)c(C)c2)C1=O` (centres undefined) displayed an RP-LC retention time of 833 s. In turn, `COc1ccc(NC(=O)c2cn(-c3cc(N4CCCCC4C)ncn3)cn2)cc1OC` (centres undefined) returned an RP-LC retention time of 939 s. Regarding `CN1CCC([C@@H]2CN(S(=O)(=O)c3ccc(Cl)s3)C[C@H]2C(N)=O)CC1`, the RP-LC retention time stood at 573 s. In turn, `COc1cc2c(cc1/C=C/[N+](=O)[O-])OC(C)C2` (centres undefined) registered an RP-LC retention time of 908 s. The compound `Cc1ccc(-n2nc(C)c3sc(N4CCCC(C(=O)NC5CCCc6ccccc65)C4)nc32)cc1` (centres undefined) came in with an RP-LC retention time of 1300 s. `CCOC(=O)c1c(C)oc2ncnc(NCc3ccccn3)c12`: the RP-LC retention time worked out at 671 s.

`CSc1cccc(NC(=O)N2CCC(c3nc(C(=O)N(C)C)c(C)o3)CC2)c1` gave an RP-LC retention time of 732 s.

As for `O=c1ccc(-c2ccccc2)nn1Cc1nc(-c2ccc3c(c2)OCO3)no1`, the RP-LC retention time turned out to be 959 s.

For `O=C(CSc1ccc(NC(=O)c2cccs2)nn1)Nc1cccc(Cl)c1Cl`, the RP-LC retention time stood at 942 s. `CCc1nnc(NC(=O)C2CCN(C(=O)c3ccccc3F)CC2)s1` yielded an RP-LC retention time of 675 s.

`CC(C)c1ccc(-c2cc3c4nn(CC(=O)N5CCCC5)c(=O)n4ccn3n2)cc1`: the RP-LC retention time stood at 916 s. For `CCC(=O)N1CCc2cc(N3CC(C(=O)NCC4CC4)CC3=O)ccc21` (centres undefined), the RP-LC retention time is 652 s.

On to `Nc1cc(C2CCN(C(=O)NCc3ccc(F)cc3)CC2)no1`, for which the RP-LC retention time amounted to 671 s. `CC(C(=O)NCCc1c[nH]c2ccc(Cl)cc12)C1CCN(S(=O)(=O)c2cccs2)CC1` (centres undefined) returned an RP-LC retention time of 921 s. `COc1cccc(C(=O)N2CCC3(CC2)NC(=O)c2ccc(Cl)cc2N3)c1` registered an RP-LC retention time of 746 s.

In turn, `CC(C)(C)n1nnnc1C1CC2(CCOCC2)C(=O)N1Cc1ccccc1F` (centres undefined) had an RP-LC retention time of 756 s.
